From patent US11591318B2, “Bipyrazole derivatives as JAK inhibitors” (Incyte Corporation, priority 2013, dated 2023)
Where a name gives a salt, the structure may show the parent alone.

Each compound was assayed on human JAK1 (a.a. 837-1142) (assay: In vitro JAK kinase assay (HTRF), JAK1). Details: ratio of IC50 values at 1 mM ATP.
Assay type: biochemical
Experimental: The catalytic activity of JAK1, JAK2 or JAK3 was assayed by measuring the phosphorylation of a biotinylated peptide. The phosphorylated peptide was detected by homogenous time resolved fluorescence (HTRF). […] Reactions were carried out at room temperature for 1 hour and then stopped with 20 μL 45 mM EDTA, 300 nM SA-APC, 6 nM Eu-Py20 in assay buffer (Perkin Elmer, Boston, Mass.). Binding to the Europium labeled antibody took place for 40 minutes and HTRF signal was measured on a Fusion plate reader (Perkin Elmer, Boston, Mass.).

| SMILES | JAK2/JAK1 |
| --- | --- |
| Cc1[nH]ncc1-c1cnn(C2(CC#N)CN(c3cnc(C(=O)N[C@@H](C)C(F)(F)F)cn3)C2)c1 [Example 1, 5-[3-(Cyanomethyl)-3-(3′-methyl-1H,1′H-4,4′-bipyrazol-1-yl)azetidin-1-yl]-N-[(1S)-2,2,2-trifluoro-1-methylethyl]pyrazine-2-carboxamide trifluoroacetate] | >10 |
| Cc1n[nH]cc1-c1cnn(C2(CC#N)CN(c3cnc(C(=O)NC(C)C)cn3)C2)c1 [Example 2, 5-[3-(Cyanomethyl)-3-(3′-methyl-1H,1′H-4,4′-bipyrazol-1-yl)azetidin-1-yl]-N-isopropylpyrazine-2-carboxamide trifluoroacetate] | >10 |
| C[C@H](NC(=O)c1cc(F)c(N2CC(CC#N)(n3cc(-c4cn[nH]c4)cn3)C2)cc1F)C(F)(F)F [Example 5, 4-[3-(1H,1′H-4,4′-Bipyrazol-1-yl)-3-(cyanomethyl)azetidin-1-yl]-2,5-difluoro-N-[(1S)-2,2,2-trifluoro-1-methylethyl]benzamide trifluoroacetate] | >10 |
| Cc1n[nH]cc1-c1cn(C2(CC#N)CN(c3cnc(C(=O)NC(C)C)cn3)C2)nc1C [Example 6, 5-[3-(Cyanomethyl)-3-(3,3′-dimethyl-1H,1′H-4,4′-bipyrazol-1-yl)azetidin-1-yl]-N-isopropylpyrazine-2-carboxamide trifluoroacetate] | >10 |
